Data taken from patent US9975880B2, “Imidazolidine-2,4-dione dervatives” (IPSEN PHARMA S.A.S., priority 2013, dated 2018).
In brackets after ≈: the same amount, converted by molar mass.

Key:
[1] = tested on: DU145 cells; test: Anti-proliferative activity on DU145 in complete medium; assay type: cell-based; details: DU145 (no androgen receptor), 144 h, up to 10,000 nM, Cell-Titer-Glow
Description: (§1) It is used to evaluate the selectivity of the compounds for androgen receptor expressing cells. No activity of the compounds is expected. • The cells of the DU145 line (ATCC HTB-81) are seeded at 800 cells/well in 90 μl of complete medium in 96-well plates coated with poly-D-lysine (Biocoat, Costar). • Treatment of the cells: 24 h after the seeding, the cells are treated with 10 μl/well of compound diluted in the culture medium. The concentrations used are the following: 1 nM/10/30/100/300/1000/3000/10,000 nM. The cells are incubated for 144 h at 37° C., 5% CO2. • Reading: After incubation for 6 days, cell proliferation was determined by Cell-Titer-Glow (CTG) Luminescent Cell Viability Assay • Results: The experiments are carried out in duplicate and the best compounds are tested twice. A concentration value inhibiting the cell proliferation by 50% (IC50) is calculated.

[2] = tested on: VCaP cells; test: Anti-proliferative activity on VCaP in complete medium; assay type: cell-based; details: Homo sapiens, Cell-Titer-Glow, read-out: IC50 on the VCaP cells in culture (inhibition of cell proliferation by 50%)
Description: as §1, with “•” for “It is used to evaluate the selectivity of the compounds for androgen receptor expressing cells. No activity of the compounds is expected. •”, “the VCaP” for “the DU145”, “(ATCC CRL-2876)” for “(ATCC HTB-81)”, “at 20000” for “at 800”, “for […]” for “for 6”

[3] = Evaluation of solubility; assay type: physicochemical; details: aqueous buffer, kinetic from dmso stock; 100 mM potassium phosphate buffer pH 7.4, 0.1% DMSO, target 100 μM, 1 hour room temperature, LC-MS/MS
Description: Test compounds were prepared as stock solutions at 100 mM in DMSO. The stock solutions were diluted, in duplicate, into 100 mM potassium phosphate buffer (pH 7.4) to a target concentration of 100 μM with a final DMSO concentration of 0.1%. The solutions were shaken at 1000 rpm for 1 hour at room temperature followed by centrifugation for 10 minutes at 1200 rpm to precipitate un-dissolved particles. The supernatants were transferred to new tubes and the samples were further prepared as follows: • Undiluted: 5 μL of supernatant to 95 μL of ACN containing internal standard (IS) • 1:10 diluted: 10 μL of the supernatant into 90 μL K-buffer, mix, then transfer 5 μL of 1:10 diluted samples to 95 μL ACN containing IS • 1:100 diluted: 10 μL of the supernatant into 990 μL K-buffer, mix, then transfer 5 μL of 1:100 diluted samples to 95 μL of ACN containing IS
Samples (undiluted, 1:10 diluted, and 1:100 diluted) along with the standards were analyzed by LC-MS/MS.

[4] = tested on: LNCaP cells; test: Anti-proliferative activity on LNCaP in complete medium; assay type: cell-based; details: Homo sapiens, 144 h, complete medium, 144 h incubation, Cell-Titer-Glow, read-out: IC50 on the LNCaP cells in culture (inhibition of cell proliferation by 50%)
Description: The anti-proliferative activity of the compounds of the present invention is determined on LNCaP in complete medium by applying the following experimental procedure:
The LNCaP cell type (ATCC, 1740) originates from a prostate carcinoma. This line expresses the androgen receptor and is hormone-dependent.
Maintenance of the LNCaP line is carried out in complete culture medium: RPMI, 10% of fetal calf serum, 2 mM glutamine, 100 U/ml penicillin, 0.1 mg/ml of streptomycin and 0.01M HEPES, 1 mM sodium pyruvate, […]. • Seeding the plates:
The LNCaP line is seeded at 20,000 cells/well in 90 μl of complete medium in 96-well plates coated with poly-D-lysine (Biocoat, Costar). • Treatment of the cells: 24 h after the seeding, the cells are treated with 10 μl/well of compound diluted in the culture medium. The concentrations used are the following: 1 nM/10/30/100/300/1000/3000/10,000 nM. The cells are incubated for 144 h at 37° C., 5% CO2. • Reading: After incubation for 6 days, cell proliferation was determined by Cell-Titer-Glow (CTG) Luminescent Cell Viability Assay. • Results: The experiments are carried out in duplicate and the best compounds are tested twice. […] Anti-Proliferative Activity on DU145 in Complete Medium

SMILES | IC50 on DU145 cells (anti-proliferative effect) [1] | IC50 [2] [µM] | solubility at 1 h [3] [µM] | IC50 [4] [µM]
CC1(C)C(=O)N(c2ccc(C#N)c(C(F)(F)F)c2)C(=O)N1C/C=C\CN1CC(c2ccc(S(C)(=O)=O)c(Cl)c2)CC1=O (stereo not drawn) [Example 14, (Z)-4-(3-(4-(4-(3-chloro-4-(methylsulfonyl)phenyl)-2-oxopyrrolidin-1-yl)but-2-en-1-yl)-4,4-dimethyl-2,5-dioxoimidazolidin-1-yl)-2-(trifluoromethyl)benzonitrile] | no measurable IC50 | ≤ 5 | 24.1 (≈ 15 µg/mL) | 
CC1(C)C(=O)N(c2ccc(C#N)c(C(F)(F)F)c2)C(=O)N1C/C=C\CN1CCN(c2ccc(S(C)(=O)=O)c(C(F)(F)F)c2)C1=O [Example 10, (Z)-4-(4,4-dimethyl-3-(4-(3-(4-(methylsulfonyl)-3-(trifluoromethyl)phenyl)-2-oxoimidazolidin-1-yl)but-2-en-1-yl)-2,5-dioxoimidazolidin-1-yl)-2-(trifluoromethyl)benzonitrile] | no measurable IC50 | ≤ 5 |  | 
CC1(C)C(=O)N(c2ccc(C#N)c(C(F)(F)F)c2)C(=O)N1C/C=C\CN1CCC(c2ccc(C#N)c(C(F)(F)F)c2)C1 (stereo not drawn) [Example 12, (Z)-4-(1-(4-(3-(4-cyano-3-(trifluoromethyl)phenyl)-5,5-dimethyl-2,4-dioxoimidazolidin-1-yl)but-2-en-1-yl)pyrrolidin-3-yl)-2-(trifluoromethyl)benzonitrile] | no measurable IC50 | ≤ 5 |  | < 1.5
CC1(C)C(=O)N(c2ccc(S(C)(=O)=O)c(C(F)(F)F)c2)C(=O)N1C/C=C\Cn1cc(-c2ccc(S(C)(=O)=O)c(C(F)(F)F)c2)cn1 [Example 3, (Z)-5,5-dimethyl-3-(4-(methylsulfonyl)-3-(trifluoromethyl)phenyl)-1-(4-(4-(4-(methylsulfonyl)-3-(trifluoromethyl)phenyl)-1H-pyrazol-1-yl)but-2-en-1-yl)imidazolidine-2,4-dione] | no measurable IC50 | ≤ 5 | 0.2 (≈ 0.139 µg/mL) | < 1.5
CC1(C)C(=O)N(c2ccc(C#N)c(C(F)(F)F)c2)C(=O)N1C/C=C\CN1CC(c2ccc(S(C)(=O)=O)c(C(F)(F)F)c2)CC1=O (stereo not drawn) [Example 13, (Z)-4-(4,4-dimethyl-3-(4-(4-(4-(methylsulfonyl)-3-(trifluoromethyl)phenyl)-2-oxopyrrolidin-1-yl)but-2-en-1-yl)-2,5-dioxoimidazolidin-1-yl)-2-(trifluoromethyl)benzonitrile] | no measurable IC50 | ≤ 5 |  | < 1.5
